Source: ChEMBL document CHEMBL5104124, “Recent advances on synthesis and biological activities of C-17 aza-heterocycle derived steroids” (Bioorg Med Chem, 2022)
Each block holds one compound with its values, some of them ahead of it.

What was measured:
[1] = target: 3-oxo-5-alpha-steroid 4-dehydrogenase 2 (Rattus norvegicus, UniProt P31214); test: Inhibition of rat liver microsomal SRD5A2 incubated for 60 mins by thin layer chromatography; assay type: microsomes, Microsome
[2] = test system: HepG2; test: Antiproliferative activity against human HepG2 cells assessed as cell growth inhibition measured after 24 hrs by MTT assay; assay type: functional, cell-based; conditions: HepG2, 24 h
[3] = test system: LNCaP; test: Antiproliferative activity against human LNCaP cells assessed as cell growth inhibition measured after 96 hrs by MTT assay; assay type: functional, cell-based
[4] = test system: PC-3; test: Antiproliferative activity against human PC-3 cells assessed as cell growth inhibition measured after 96 hrs by MTT assay; assay type: functional, cell-based; conditions: PC-3, 96 h
[5] = target: 3-oxo-5-alpha-steroid 4-dehydrogenase 2 (Homo sapiens, UniProt P31213); test: Inhibition of SRD5A2 in HEK293 incubated for 60 mins by thin layer chromatography; assay type: cell-based
3-oxo-5-alpha-steroid 4-dehydrogenase 2 (Homo sapiens, UniProt P31213), sequence (P31213 whole entry): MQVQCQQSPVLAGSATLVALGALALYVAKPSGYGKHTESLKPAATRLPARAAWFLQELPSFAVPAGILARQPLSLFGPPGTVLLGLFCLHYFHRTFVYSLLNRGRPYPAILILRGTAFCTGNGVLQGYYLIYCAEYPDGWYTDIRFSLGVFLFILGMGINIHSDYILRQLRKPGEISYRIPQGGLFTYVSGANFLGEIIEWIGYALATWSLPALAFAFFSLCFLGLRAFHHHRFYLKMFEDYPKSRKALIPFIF

[6] = target: 3-oxo-5-alpha-steroid 4-dehydrogenase 1 (Homo sapiens, UniProt P18405); test: Inhibition of human prostate SRD5A1 incubated for 60 mins by scintillation counter; assay type: tissue-based, Prostate gland
3-oxo-5-alpha-steroid 4-dehydrogenase 1 (Homo sapiens, UniProt P18405), sequence (P18405 whole entry): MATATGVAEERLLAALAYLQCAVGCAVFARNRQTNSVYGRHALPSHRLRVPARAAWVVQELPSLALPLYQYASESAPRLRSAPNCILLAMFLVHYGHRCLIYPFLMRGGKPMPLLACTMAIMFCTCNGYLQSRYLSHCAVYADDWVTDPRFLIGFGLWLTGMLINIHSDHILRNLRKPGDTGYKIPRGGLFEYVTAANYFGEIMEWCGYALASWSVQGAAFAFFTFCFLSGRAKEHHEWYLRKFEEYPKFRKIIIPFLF

[7] = Inhibition of Wistar rat testicular 3beta-HSD incubated for 20 mins by liquid scintillation counting analysis; assay type: tissue-based, Testis
[8] = test system: Staphylococcus aureus; test: Antibacterial activity against Staphylococcus aureus ATCC 25923 assessed as inhibition of bacterial growth measured after 24 hrs by CLSI protocol based microdilution assay; assay type: functional
[9] = test system: Staphylococcus aureus; test: Antibacterial activity against methicillin resistant Staphylococcus aureus ATCC 43300 assessed as inhibition of bacterial growth measured after 24 hrs by CLSI protocol based microdilution assay; assay type: functional
[10] = test system: Candida albicans; test: Antifungal activity against Candida albicans ATCC 10231 assessed as fungal growth inhibition measured after 24 hrs by CLSI protocol based microdilution assay; assay type: functional
[11] = test system: Enterococcus faecalis; test: Antibacterial activity against Enterococcus faecalis ATCC 19433 assessed as inhibition of bacterial growth measured after 24 hrs by CLSI protocol based microdilution assay; assay type: functional
[12] = test system: Staphylococcus aureus; test: Antibacterial activity against methicillin resistant Staphylococcus aureus human isolate assessed as inhibition of bacterial growth measured after 24 hrs by CLSI protocol based microdilution assay; assay type: functional
[13] = test system: Brevibacterium; test: Antibacterial activity against Brevibacterium assessed as inhibition of bacterial growth measured after 24 hrs by CLSI protocol based microdilution assay; assay type: functional
[14] = test system: Corynebacterium sp.; test: Antibacterial activity against Corynebacterium assessed as inhibition of bacterial growth measured after 24 hrs by CLSI protocol based microdilution assay; assay type: functional
[15] = test system: Staphylococcus aureus; test: Antibacterial activity against methicillin resistant Staphylococcus aureus chicken isolate assessed as inhibition of bacterial growth measured after 24 hrs by CLSI protocol based microdilution assay; assay type: functional
[16] = test system: Bacillus cereus; test: Antibacterial activity against Bacillus cereus ATCC 11778 assessed as inhibition of bacterial growth measured after 24 hrs by CLSI protocol based microdilution assay; assay type: functional
[17] = test system: Staphylococcus aureus; test: Antibacterial activity against methicillin resistant Staphylococcus aureus ATCC 25923 assessed as inhibition of bacterial growth measured after 24 hrs by CLSI protocol based microdilution assay; assay type: functional
[18] = test system: Escherichia coli; test: Antibacterial activity against Escherichia coli DSM 10233 assessed as inhibition of bacterial growth measured after 24 hrs by CLSI protocol based microdilution assay; assay type: functional
[19] = test system: T47D; test: Antiproliferative activity against human T47D cells assessed as cell growth inhibition measured after 72 hrs by MTT assay; assay type: functional, cell-based
[20] = test system: MCF7; test: Antiproliferative activity against human MCF7 cells assessed as cell growth inhibition measured after 72 hrs by MTT assay; assay type: functional, cell-based; conditions: MCF7, 72 h
[21] = test system: MDA-MB-361; test: Antiproliferative activity against human MDA-MB-361 cells assessed as cell growth inhibition measured after 72 hrs by MTT assay; assay type: functional, cell-based; conditions: MDA-MB-361, 72 h
[22] = Antiproliferative activity against human WM35 cells assessed as cell growth inhibition measured after 5 days by MTT assay; assay type: functional, cell-based; conditions: WM35, 120 h
[23] = target: Tubulin (Sus scrofa, UniProt P02554+P02550); test: Inhibition of porcine brain tubulin polymerization preincubated for 30 mins followed by GTP addition by absorbance based analysis; assay type: tissue-based
[24] = test system: K562; test: Antiproliferative activity against human K562 cells assessed as cell growth inhibition measured after 5 days by MTT assay; assay type: functional, cell-based; conditions: K562, 120 h
[25] = test system: OVCAR-3; test: Antiproliferative activity against human OVCAR-3 cells assessed as cell growth inhibition measured after 5 days by MTT assay; assay type: functional, cell-based; conditions: OVCAR-3, 120 h
[26] = target: 3-oxo-5-alpha-steroid 4-dehydrogenase 1 (Rattus norvegicus, UniProt P24008); test: Inhibition of rat liver microsomal SRD5A1 incubated for 60 mins by thin layer chromatography; assay type: microsomes, Microsome
3-oxo-5-alpha-steroid 4-dehydrogenase 1 (Rattus norvegicus, UniProt P24008), sequence (P24008 whole entry): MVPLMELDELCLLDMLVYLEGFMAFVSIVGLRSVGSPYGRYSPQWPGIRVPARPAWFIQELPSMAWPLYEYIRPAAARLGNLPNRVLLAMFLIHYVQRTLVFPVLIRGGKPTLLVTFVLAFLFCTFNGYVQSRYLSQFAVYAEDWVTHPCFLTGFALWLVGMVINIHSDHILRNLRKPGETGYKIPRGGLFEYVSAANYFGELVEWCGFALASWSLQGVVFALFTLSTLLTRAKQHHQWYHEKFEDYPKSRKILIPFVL

[27] = test system: Huh-7; test: Antiproliferative activity against human Huh-7 cells assessed as cell growth inhibition by MTT assay; assay type: functional, cell-based
[28] = test system: HepG2; test: Antiproliferative activity against human HepG2 cells assessed as cell growth inhibition by MTT assay; assay type: functional, cell-based
[29] = test system: SGC-7901; test: Antiproliferative activity against human SGC-7901 cells assessed as cell growth inhibition by MTT assay; assay type: functional, cell-based
[30] = test system: ECa-109 cell line; test: Antiproliferative activity against human EC109 cells assessed as cell growth inhibition measured after 72 hrs by MTT assay; assay type: functional, cell-based; conditions: ECa-109, 72 h
[31] = test system: EC9706; test: Antiproliferative activity against human EC9706 cells assessed as cell growth inhibition measured after 72 hrs by MTT assay; assay type: functional, cell-based; conditions: EC9706, 72 h
[32] = test system: MGC-803; test: Antiproliferative activity against human MGC-803 cells assessed as cell growth inhibition measured after 72 hrs by MTT assay; assay type: functional, cell-based; conditions: MGC-803, 72 h
[33] = Antiproliferative activity against African green monkey Vero cells assessed as cell growth inhibition; assay type: toxicity, cell-based; conditions: African green monkey (Chlorocebus sabaeus)
[34] = test system: HT-29; test: Antiproliferative activity against human HT-29 cells assessed as cell growth inhibition; assay type: functional, cell-based
[35] = test system: HeLa; test: Antiproliferative activity against human HeLa cells assessed as cell growth inhibition; assay type: functional, cell-based
[36] = Antiproliferative activity against human HMEC-1 cells assessed as cell growth inhibition; assay type: toxicity, cell-based
[37] = test system: CCRF-CEM; test: Antiproliferative activity against human CEM cells assessed as cell growth inhibition; assay type: functional, cell-based
[38] = Antiangiogenesis activity in Bovine BAEC cells assessed as increase in tube formation incubated for 18 hrs by microscopic analysis; assay type: functional, cell-based; conditions: Bos taurus
[39] = test system: MDA-MB-231; test: Antiproliferative activity against human MDA-MB-231 cells assessed as cell growth inhibition; assay type: functional, cell-based
[40] = test system: HepG2; test: Antiproliferative activity against human HepG2 cells assessed as cell growth inhibition; assay type: functional, cell-based
[41] = test system: SK-OV-3; test: Antiproliferative activity against human SK-OV-3 cells assessed as cell growth inhibition; assay type: functional, cell-based
[42] = test system: MCF7; test: Antiproliferative activity against human MCF7 cells assessed as cell growth inhibition; assay type: functional, cell-based
[43] = Antiproliferative activity against human HMEC-1 cells assessed as cell growth inhibition measured after 4 days by coulter counter assay; assay type: toxicity, cell-based
[44] = test system: HeLa; test: Antiproliferative activity against human HeLa cells assessed as cell growth inhibition measured after 4 days by coulter counter assay; assay type: functional, cell-based; conditions: 96 h
[45] = test system: CCRF-CEM; test: Antiproliferative activity against human CEM cells assessed as cell growth inhibition measured after 4 days by coulter counter assay; assay type: functional, cell-based; conditions: 96 h

3-oxo-5-alpha-steroid 4-dehydrogenase 2 (Rattus norvegicus, UniProt P31214), sequence (P31214 whole entry): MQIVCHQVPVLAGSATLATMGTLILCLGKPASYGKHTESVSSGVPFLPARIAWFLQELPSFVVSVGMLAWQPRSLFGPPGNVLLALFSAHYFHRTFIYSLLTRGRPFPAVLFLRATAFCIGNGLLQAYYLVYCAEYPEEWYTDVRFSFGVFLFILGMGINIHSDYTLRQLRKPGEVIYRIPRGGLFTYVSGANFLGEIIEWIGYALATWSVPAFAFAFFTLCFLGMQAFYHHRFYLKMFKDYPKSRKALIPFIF

Structure (SMILES): C[C@]12CC[C@H](O)CC1=CC[C@@H]1[C@@H]2CC[C@]2(C)C(n3cnc4ccccc43)=C(C=O)C[C@@H]12
IC50 [1]: 127 nM

Structure (SMILES): CC(=O)N1N=C(C2=CC[C@H]3[C@@H]4CC=C5C[C@@H](O)CC[C@]5(C)[C@H]4CC[C@]23C)C[C@H]1c1ccc(F)cc1
IC50 [5]: 27.3 nM
IC50 [6]: 13.9 nM

Structure (SMILES): CCCCCCn1c[n+](CCCCCC)c2c1[C@@]1(C)CC[C@H]3[C@@H](CC=C4C[C@@H](O)CC[C@@]43C)[C@@H]1C2.[I-]
MIC [8]: 0.5 µg/mL
MIC [9]: 1 µg/mL
MIC [10]: 1 µg/mL
MIC [11]: 4 µg/mL
MIC [12]: 1 µg/mL
MIC [13]: 0.5 µg/mL
MIC [14]: 8 µg/mL
MIC [15]: 1 µg/mL
MIC [16]: 1 µg/mL
MIC [17]: 0.5 µg/mL
MIC [18]: 4 µg/mL

Structure (SMILES): CCCCCCCn1c[n+](CCCCCCC)c2c1[C@@]1(C)CC[C@H]3[C@@H](CC=C4C[C@@H](O)CC[C@@]43C)[C@@H]1C2.[I-]
MIC [8]: 0.25 µg/mL
MIC [9]: 1 µg/mL
MIC [10]: 1 µg/mL
MIC [11]: 1 µg/mL
MIC [12]: 1 µg/mL
MIC [13]: 0.25 µg/mL
MIC [14]: 1 µg/mL
MIC [15]: 0.5 µg/mL
MIC [16]: 0.5 µg/mL
MIC [17]: 1 µg/mL
MIC [18]: 4 µg/mL

Structure (SMILES): C[C@]12CC[C@H](O)CC1=CC[C@@H]1[C@@H]2CC[C@]2(C)C(c3ccn(-c4ccc(Cl)cc4)n3)=CC[C@@H]12
IC50 [5]: 35.3 nM
IC50 [6]: 14.2 nM

Structure (SMILES): COc1cc2c(cc1O)CC[C@@H]1[C@@H]2CC[C@]2(C)[C@@H](c3cn(-c4ccc(C(F)(F)F)cc4)nn3)CC[C@@H]12
IC50 [22]: 1900 nM
IC50 [23]: 8.1 µM
IC50 [24]: 1000 nM
IC50 [25]: 1400 nM

Structure (SMILES): C[C@]12CC[C@H](OC(=O)C3CC3)CC1=CC[C@@H]1[C@@H]2CC[C@]2(C)C(n3cnc4ccccc43)=C(C=O)C[C@@H]12
IC50 [1]: 4 nM
IC50 [26]: 320 nM

Structure (SMILES): C[C@]12CC[C@H](O)CC1=CC[C@@H]1[C@@H]2CC[C@]2(C)C(c3ccc4[nH]ccc4c3)=CC[C@@H]12
IC50 at 4 days [43]: 590 nM
IC50 [44]: 2900 nM
IC50 [45]: 1500 nM

Continued, in another order:

IC50 [2]: 67.7 µM
Structure (SMILES): COc1ccncc1C1=CC[C@H]2[C@@H]3CC=C4C[C@@H](OC(=O)[C@H](O)[C@@H](NC(=O)c5ccccc5)c5ccccc5)CC[C@]4(C)[C@H]3CC[C@]12C

IC50 [3]: 3.8 µM
IC50 [4]: 6.9 µM
Structure (SMILES): C[C@]12CC[C@H](O)CC1=CC[C@@H]1[C@@H]2CC[C@]2(C)C(c3nc4ccccc4[nH]3)=CC[C@@H]12

IC50 [7]: 420 nM
Structure (SMILES): COC(=O)c1cc([C@H]2CC[C@H]3[C@@H]4CCC5=CC(=O)CC[C@]5(C)[C@H]4CC[C@]23C)n(-c2ccc(OC)cc2)n1

IC50 [19]: 1450 nM
IC50 [20]: 1100 nM
IC50 [21]: 940 nM
Structure (SMILES): C[C@]12CC[C@H](O)CC1=CC[C@@H]1[C@@H]2CC[C@]2(C)C3=NN(c4ccc(C#N)cc4)C[C@@H]3C[C@@H]12

IC50 [27]: 5.65 µM
IC50 [28]: 5.41 µM
IC50 [29]: 10.6 µM
Structure (SMILES): C[C@]12CC[C@H](O)CC1=CC[C@@H]1[C@@H]2CC[C@]2(C)c3nc(N)nc(-c4ccccc4Cl)c3C[C@@H]12

IC50 [32]: 10.3 µM
Structure (SMILES): C[C@]12CC[C@H](O)CC1=CC[C@@H]1[C@@H]2CC[C@]2(C)c3nc(NCc4ccc(Cl)cc4)sc3C[C@@H]12
IC50 [30]: 196 nM
IC50 [31]: 39.3 µM

IC50 [34]: 430 nM
IC50 [23]: 2.3 µM
IC50 [35]: 1600 nM
IC50 [37]: 260 nM
IC50 [38]: 100 nM
Structure (SMILES): COc1cc2c(cc1OS(N)(=O)=O)CC[C@@H]1[C@@H]2CC[C@]2(C)C(c3ccnc(Cl)c3)=CC[C@@H]12
IC50 [33]: 1300 nM
IC50 [36]: 2300 nM

IC50 [23]: 5.9 µM
IC50 [24]: 700 nM
IC50 [25]: 900 nM
Structure (SMILES): COc1cc2c(cc1O)CC[C@@H]1[C@@H]2CC[C@]2(C)[C@@H](c3cn(-c4ccc(OC(F)(F)F)cc4)nn3)CC[C@@H]12
IC50 [22]: 2900 nM

IC50 [34]: 110 nM
IC50 [23]: 2.1 µM
IC50 [35]: 370 nM
IC50 [39]: 110 nM
IC50 [37]: 39 nM
IC50 [38]: 200 nM
Structure (SMILES): COc1cc2c(cc1OS(N)(=O)=O)CC[C@@H]1[C@@H]2CC[C@]2(C)C(c3cncc(Cl)c3)=CC[C@@H]12
IC50 [33]: 30 nM
IC50 [36]: 400 nM

IC50 [35]: 8140 nM
IC50 [40]: 12.4 µM
IC50 [41]: 5.08 µM
IC50 [42]: 8.81 µM
Structure (SMILES): C[C@]12CC[C@H]3[C@@H](CC=C4C[C@@H](O)CC[C@@]43C)[C@@H]1CC[C@@H]2c1cc(-c2ccc(O)cc2)c(C#N)c(N)n1
